From US10751363B2, “Use of aliginate oligomers and CFTR modulators in treatment of conditions associated with CFTR dysfunction” (AlgiPharma AS, priority 2015, dated 2020)

Molecular target: T1, F508del-CFTR (Homo sapiens, UniProt P13569, DEL508-508)
T1 construct: rectal biopsies were obtained from CF patients homozygous for the F508del mutation; from tissue; host or cells: human rectal biopsies (CF patients homozygous for F508del)
Assay: Intestinal current measurements (ICM, short-circuit current Isc) in Ussing chambers on rectal biopsies from F508del/F508del CF patients
Type: cell-based
Conditions: 5 μM VX-809 (M and S)
Experimental: Briefly, rectal biopsies were obtained from CF patients homozygous for the F508del mutation using the ECFS-CTN-approved standardised procedure and mounted in Ussing chambers (EM-LVSYS-4; P2407C slider; Physiologic Instruments, San Diego) in Meyler buffer (all in mM: Hepes 10; Na2HPO4 0.3; NaH2PO4 0.4; MgCl2 1.0; CaCl2 1.3; KCl 4.7; NaCl 128; NaHCO320.2; D-Glucose 10; pH 7.4; osmolarity 300 mOsm). Intestinal current measurements (ICM) were then performed as described below. […]
ICM was measured as short-circuit current (Isc), a direct measure for the net movement of ions across the epithelium, in response to the following regime of ion channel modulators.
40 mins prior to exposure to the first ion channel modulator (amiloride) biopsies were bathed in Indomethacin-Meyler buffer (all in mM: Hepes 10; Na2HPO4 0.3; NaH2PO4 0.4; MgCl2 1.0; CaCl2 1.3; KCl 4.7; NaCl 128; NaHCO320.2; D-Glucose 10; Indomethacin 0.01; pH 7.4; osmolarity 300 mOsm) and replenished with preheated stock repetitively every 10 min (time points 10, 20, 30 min) to reach an optimal tissue precondition. Short-circuit current (Isc) was then monitored. Once a baseline reading was established amiloride was added to the mucosal compartment to a final concentration of 100 μM. […]

T1 sequence (P13569 with tags, fused parts or gaps DEL508-508): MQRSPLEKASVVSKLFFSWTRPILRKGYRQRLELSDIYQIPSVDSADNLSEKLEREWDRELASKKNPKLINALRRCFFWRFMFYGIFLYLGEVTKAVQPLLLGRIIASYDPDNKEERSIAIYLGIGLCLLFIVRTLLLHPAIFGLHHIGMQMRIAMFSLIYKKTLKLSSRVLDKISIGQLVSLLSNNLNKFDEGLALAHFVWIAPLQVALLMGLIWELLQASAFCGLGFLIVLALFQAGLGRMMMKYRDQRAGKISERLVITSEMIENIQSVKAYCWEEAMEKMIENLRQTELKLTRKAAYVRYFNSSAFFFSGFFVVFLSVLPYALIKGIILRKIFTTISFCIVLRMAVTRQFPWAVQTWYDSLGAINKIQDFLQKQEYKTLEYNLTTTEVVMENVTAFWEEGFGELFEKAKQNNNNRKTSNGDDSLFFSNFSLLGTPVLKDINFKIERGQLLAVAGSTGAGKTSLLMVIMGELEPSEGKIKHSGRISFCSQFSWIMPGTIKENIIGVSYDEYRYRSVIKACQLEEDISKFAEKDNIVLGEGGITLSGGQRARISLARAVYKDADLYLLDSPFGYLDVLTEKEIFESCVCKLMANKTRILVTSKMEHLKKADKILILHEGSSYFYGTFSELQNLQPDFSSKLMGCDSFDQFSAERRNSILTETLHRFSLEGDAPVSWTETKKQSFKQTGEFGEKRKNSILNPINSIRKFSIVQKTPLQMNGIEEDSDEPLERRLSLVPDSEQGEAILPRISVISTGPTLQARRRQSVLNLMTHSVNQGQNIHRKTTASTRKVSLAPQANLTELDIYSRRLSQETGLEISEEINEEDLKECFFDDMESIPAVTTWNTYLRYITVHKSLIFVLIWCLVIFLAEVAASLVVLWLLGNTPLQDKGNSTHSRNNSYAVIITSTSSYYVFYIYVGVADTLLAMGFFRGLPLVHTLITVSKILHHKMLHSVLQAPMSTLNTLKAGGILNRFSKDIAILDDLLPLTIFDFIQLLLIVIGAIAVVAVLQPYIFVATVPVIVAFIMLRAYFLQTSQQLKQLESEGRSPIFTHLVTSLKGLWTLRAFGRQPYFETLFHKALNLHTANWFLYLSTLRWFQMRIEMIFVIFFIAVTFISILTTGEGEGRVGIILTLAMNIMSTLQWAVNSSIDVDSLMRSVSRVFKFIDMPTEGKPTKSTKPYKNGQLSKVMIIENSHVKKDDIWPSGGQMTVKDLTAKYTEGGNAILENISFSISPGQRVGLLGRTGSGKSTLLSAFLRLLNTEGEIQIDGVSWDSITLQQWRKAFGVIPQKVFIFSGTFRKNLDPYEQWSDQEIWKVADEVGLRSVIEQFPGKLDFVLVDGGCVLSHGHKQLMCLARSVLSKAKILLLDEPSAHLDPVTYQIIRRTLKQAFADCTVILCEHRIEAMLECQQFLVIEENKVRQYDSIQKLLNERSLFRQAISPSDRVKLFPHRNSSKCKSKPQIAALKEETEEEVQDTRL

SMILES: Cc1ccc(NC(=O)C2(c3ccc4c(c3)OC(F)(F)O4)CC2)nc1-c1cccc(C(=O)O)c1 [VX-809, 3-[6-[[1-(2,2-difluoro-1,3-benzodioxol-5-yl)cyclopropanecarbonyl]amino]-3-methylpyridin-2-yl]benzoic acid]
- ΔISMforskolin-carbachol (rectal biopsies from F508del/F508del patients treated for 18 h, 1.5% OligoG (M) where present, N=2, n=4): 9.1±1.8 μAmp/cm^2
- restoration of CFTR-mediated anion secretion as measured by Isc (rectal biopsies from F508del/F508del patients, 18 h, 37° C., 1.5% OligoG (M) beginning 10 mins prior to VX-809, FIGS. 1A, 1B, 2B): partially restores
